Source: ChEMBL document CHEMBL1154064, “Synthesis and DNA cleavage activity of 2-hydrazinyl-1,4,5,6-tetrahydropyrimidine containing hydroxy group” (2009)
Activity calls are given as the source filed them. The rule behind the calls is not given here.

Key:
[1] = tested on: Nucleic Acid; assay: Binding affinity to Escherichia coli pUC19 DNA assessed as form 1 DNA level at 0.175 mM after 25.35 hrs by agarose gel electrophoresis; format: nucleic-acid assay
[2] = tested on: Nucleic Acid; assay: Binding affinity to Escherichia coli pUC19 DNA assessed as form 2 DNA level at 0.463 mM after 23.12 hrs by agarose gel electrophoresis; format: nucleic-acid assay
[3] = tested on: Nucleic Acid; assay: Binding affinity to supercoiled Escherichia coli pUC19 DNA assessed as formation of nicked circular DNA at 1.10 mM at pH 6.0 for 24 hrs in presence of tertiary butyl hydroxide by agarose gel electrophoresis; format: nucleic-acid assay
[4] = tested on: Nucleic Acid; assay: Binding affinity to Escherichia coli pUC19 DNA assessed as form 2 DNA level at 0.175 mM after 13.07 hrs by agarose gel electrophoresis; format: nucleic-acid assay
[5] = tested on: Nucleic Acid; assay: Binding affinity to Escherichia coli pUC19 DNA assessed as form 1 DNA level at 0.349 mM after 28.18 hrs by agarose gel electrophoresis; format: nucleic-acid assay
[6] = tested on: Nucleic Acid; assay: Binding affinity to Escherichia coli pUC19 DNA assessed as form 2 DNA level at 0.463 mM after 13.07 hrs by agarose gel electrophoresis; format: nucleic-acid assay
[7] = tested on: Nucleic Acid; assay: Binding affinity to Escherichia coli pUC19 DNA assessed as form 2 DNA level at 0.698 mM after 14.22 hrs by agarose gel electrophoresis; format: nucleic-acid assay
[8] = tested on: Nucleic Acid; assay: Binding affinity to Escherichia coli pUC19 DNA assessed as form 1 DNA level at 0.698 mM after 12.13 hrs by agarose gel electrophoresis; format: nucleic-acid assay
[9] = tested on: Nucleic Acid; assay: Binding affinity to Escherichia coli pUC19 DNA assessed as form 1 DNA level at 0.130 mM after 11.30 hrs by agarose gel electrophoresis; format: nucleic-acid assay
[10] = tested on: Nucleic Acid; assay: Binding affinity to Escherichia coli pUC19 DNA assessed as form 1 DNA level at 0.698 mM by agarose gel electrophoresis; format: nucleic-acid assay
[11] = tested on: Nucleic Acid; assay: Binding affinity to Escherichia coli pUC19 DNA assessed as form 1 DNA level at 0.349 mM after 24.08 hrs by agarose gel electrophoresis; format: nucleic-acid assay
[12] = tested on: HL-60; assay: Growth inhibition of human HL60 cells at 100 uM after 72 hrs by MTT assay; format: functional; parameters: scale not given: the % may be the effect or the level left
[13] = tested on: Nucleic Acid; assay: Binding affinity to Escherichia coli pUC19 DNA assessed as form 1 DNA level at 0.175 mM after 31.48 hrs by agarose gel electrophoresis; format: nucleic-acid assay
[14] = tested on: Nucleic Acid; assay: Binding affinity to Escherichia coli pUC19 DNA assessed as form 2 DNA level at 0.320 mM after 23.12 hrs by agarose gel electrophoresis; format: nucleic-acid assay
[15] = tested on: Nucleic Acid; assay: Binding affinity to Escherichia coli pUC19 DNA assessed as form 2 DNA level at 0.698 mM after 10.70 hrs by agarose gel electrophoresis; format: nucleic-acid assay
[16] = tested on: Nucleic Acid; assay: Binding affinity to Escherichia coli pUC19 DNA assessed as form 2 DNA level at 0.463 mM after 29.33 hrs by agarose gel electrophoresis; format: nucleic-acid assay
[17] = tested on: HeLa; assay: Growth inhibition of human HeLa cells at 100 uM after 72 hrs by MTT assay; format: functional; parameters: scale not given: the % may be the effect or the level left
[18] = tested on: Nucleic Acid; assay: Binding affinity to Escherichia coli pUC19 DNA assessed as form 2 DNA level at 0.463 mM by agarose gel electrophoresis; format: nucleic-acid assay
[19] = tested on: Nucleic Acid; assay: Binding affinity to Escherichia coli pUC19 DNA assessed as form 1 DNA level at 0.349 mM after 26.15 hrs by agarose gel electrophoresis; format: nucleic-acid assay
[20] = tested on: Nucleic Acid; assay: Binding affinity to Escherichia coli pUC19 DNA assessed as form 2 DNA level at 0.175 mM by agarose gel electrophoresis; format: nucleic-acid assay
[21] = tested on: Nucleic Acid; assay: Binding affinity to Escherichia coli pUC19 DNA assessed as form 2 DNA level at 0.698 mM after 6.42 hrs by agarose gel electrophoresis; format: nucleic-acid assay
[22] = tested on: Nucleic Acid; assay: Binding affinity to Escherichia coli pUC19 DNA assessed as form 1 DNA level at 0.175 mM after 9.07 hrs by agarose gel electrophoresis; format: nucleic-acid assay
[23] = tested on: Nucleic Acid; assay: Binding affinity to Escherichia coli pUC19 DNA assessed as form 1 DNA level at 0.698 mM after 10.70 hrs by agarose gel electrophoresis; format: nucleic-acid assay
[24] = tested on: Nucleic Acid; assay: Binding affinity to Escherichia coli pUC19 DNA assessed as form 1 DNA level at 0.320 mM after 13.07 hrs by agarose gel electrophoresis; format: nucleic-acid assay
[25] = tested on: Nucleic Acid; assay: Binding affinity to Escherichia coli pUC19 DNA assessed as form 2 DNA level at 0.262 mM after 27.07 hrs by agarose gel electrophoresis; format: nucleic-acid assay
[26] = tested on: Nucleic Acid; assay: Binding affinity to Escherichia coli pUC19 DNA assessed as form 1 DNA level at 0.320 mM after 23.12 hrs by agarose gel electrophoresis; format: nucleic-acid assay
[27] = tested on: Nucleic Acid; assay: Binding affinity to Escherichia coli pUC19 DNA assessed as form 1 DNA level at 0.262 mM after 28.18 hrs by agarose gel electrophoresis; format: nucleic-acid assay
[28] = tested on: Nucleic Acid; assay: Binding affinity to Escherichia coli pUC19 DNA assessed as form 2 DNA level at 0.463 mM after 31.48 hrs by agarose gel electrophoresis; format: nucleic-acid assay
[29] = tested on: HeLa; assay: Growth inhibition of human HeLa cells at 1000 uM after 72 hrs by MTT assay; format: functional; parameters: scale not given: the % may be the effect or the level left
[30] = tested on: Nucleic Acid; assay: Binding affinity to Escherichia coli pUC19 DNA assessed as form 1 DNA level at 0.130 mM after 14 hrs by agarose gel electrophoresis; format: nucleic-acid assay
[31] = tested on: Nucleic Acid; assay: Binding affinity to Escherichia coli pUC19 DNA assessed as form 2 DNA level at 0.262 mM after 26.15 hrs by agarose gel electrophoresis; format: nucleic-acid assay
[32] = tested on: HeLa; assay: Growth inhibition of human HeLa cells at 10 uM after 72 hrs by MTT assay; format: functional; parameters: scale not given: the % may be the effect or the level left
[33] = tested on: Nucleic Acid; assay: Binding affinity to Escherichia coli pUC19 DNA assessed as form 2 DNA level at 0.262 mM by agarose gel electrophoresis; format: nucleic-acid assay
[34] = tested on: Nucleic Acid; assay: Binding affinity to supercoiled Escherichia cloli pUC19 DNA assessed as formation of nicked circular DNA at 1.10 mM at pH 6.0 to 8.5 for 24 hrs by agarose gel electrophoresis; format: nucleic-acid assay; details: Escherichia coli
[35] = tested on: Nucleic Acid; assay: Binding affinity to Escherichia coli pUC19 DNA assessed as form 1 DNA level at 0.463 mM after 23.12 hrs by agarose gel electrophoresis; format: nucleic-acid assay
[36] = tested on: Nucleic Acid; assay: Binding affinity to Escherichia coli pUC19 DNA assessed as form 1 DNA level at 0.349 mM by agarose gel electrophoresis; format: nucleic-acid assay
[37] = tested on: Nucleic Acid; assay: Binding affinity to Escherichia coli pUC19 DNA assessed as form 2 DNA level at 0.349 mM after 5.40 hrs by agarose gel electrophoresis; format: nucleic-acid assay
[38] = tested on: Nucleic Acid; assay: Binding affinity to Escherichia coli pUC19 DNA assessed as form 2 DNA level at 0.175 mM after 25.35 hrs by agarose gel electrophoresis; format: nucleic-acid assay
[39] = tested on: Nucleic Acid; assay: Binding affinity to Escherichia coli pUC19 DNA assessed as form 1 DNA level at 0.320 mM after 29.33 hrs by agarose gel electrophoresis; format: nucleic-acid assay
[40] = tested on: Nucleic Acid; assay: Binding affinity to Escherichia coli pUC19 DNA assessed as form 1 DNA level at 0.463 mM after 27.33 hrs by agarose gel electrophoresis; format: nucleic-acid assay
[41] = tested on: Nucleic Acid; assay: Binding affinity to Escherichia coli pUC19 DNA assessed as form 2 DNA level at 0.262 mM after 25.02 hrs by agarose gel electrophoresis; format: nucleic-acid assay

Question: For Cl.Cl.NNC1=NCC(O)CN1 (stereo unspecified), which Activity [1] is on record?
Answer: 78.9%

Question: What about the Activity [2] of the same compound?
Answer: 38%

Question: What about the Activity [3] of the same compound?
Answer: inactive

Question: What about the Activity [4] of the same compound?
Answer: 9.19%

Question: And the Activity [5]?
Answer: 65.6%

Question: What about the Activity [6] of the same compound?
Answer: 22.5%

Question: What about the Activity [7] of the same compound?
Answer: 28.4%

Question: And the Activity [8]?
Answer: 77%

Question: What about the Activity [9] of the same compound?
Answer: 78.2%

Question: What about the Activity [10] of the same compound?
Answer: 98.1%

Question: What about the Activity [11] of the same compound?
Answer: 71.9%

Question: And the Activity [12]?
Answer: 70%

Question: And the Activity [13]?
Answer: 74%

Question: What about the Activity [14] of the same compound?
Answer: 73.4%

Question: What about the Activity [15] of the same compound?
Answer: 21.8%

Question: And the Activity [16]?
Answer: 42.2%

Question: What about the Activity [17] of the same compound?
Answer: 0%

Question: And the Activity [18]?
Answer: 3.75%

Question: What about the Activity [19] of the same compound?
Answer: 68.5%

Question: What about the Activity [20] of the same compound?
Answer: 2.93%

Question: What about the Activity [21] of the same compound?
Answer: 13.4%

Question: And the Activity [22]?
Answer: 93.9%

Question: What about the Activity [23] of the same compound?
Answer: 78.2%

Question: And the Activity [24]?
Answer: 84.7%

Question: What about the Activity [25] of the same compound?
Answer: 15.3%

Question: And the Activity [26]?
Answer: 68%

Question: What about the Activity [27] of the same compound?
Answer: 84.1%

Question: What about the Activity [28] of the same compound?
Answer: 48.9%

Question: And the Activity [29]?
Answer: 0%

Question: What about the Activity [30] of the same compound?
Answer: 75.5%

Question: What about the Activity [31] of the same compound?
Answer: 13.7%

Question: And the Activity [32]?
Answer: 0%

Question: And the Activity [33]?
Answer: 2.81%

Question: What about the Activity [34] of the same compound?
Answer: Active

Question: And the Activity [35]?
Answer: 62%

Question: And the Activity [36]?
Answer: 97.5%

Question: And the Activity [37]?
Answer: 3.73%

Question: What about the Activity [38] of the same compound?
Answer: 21.1%

Question: And the Activity [39]?
Answer: 59%

Question: What about the Activity [40] of the same compound?
Answer: 59.4%

Question: What about the Activity [41] of the same compound?
Answer: 11.9%
